Entries after “also recorded” stand apart in the source; their conditions may differ.

The source of these data is US9464073B2, “Pyrimidine hydroxy amide compounds as HDAC6 selective inhibitors” (Acetylon Pharmaceuticals, Inc., priority 2014, dated 2016).

Data set [1] has as its target HDAC6 (Homo sapiens (Human), UniProt Q9UBN7). Description: HDAC enzyme assay (HDAC6). Format: biochemical. How it is done:
(§1) Compounds for testing were diluted in DMSO to 50 fold the final concentration and a ten point three fold dilution series was made. The compounds were diluted in assay buffer (50 mM HEPES, pH 7.4, 100 mM KCl, 0.001% Tween-20, 0.05% BSA, 20 μM TCEP) to 6 fold their final concentration. The HDAC enzymes (purchased from BPS Biosciences) were diluted to 1.5 fold their final concentration in assay buffer. The tripeptide substrate and trypsin at 0.05 μM final concentration were diluted in assay buffer at 6 fold their final concentration. The final enzyme concentrations used in these assays were 3.3 ng/ml (HDAC1), 0.2 ng/ml (HDAC2), 0.08 ng/ml (HDAC3) and 2 ng/ml (HDAC6). The final substrate concentrations used were 16 μM (HDAC1), 10 μM (HDAC2), 17 μM (HDAC3) and 14 μM (HDAC6).
(§2) Five μl of compounds and 20 μl of enzyme were added to wells of a black, opaque 384 well plate in duplicate. Enzyme and compound were incubated together at room temperature for 10 minutes. Five μl of substrate was added to each well, the plate was shaken for 60 seconds and placed into a Victor 2 microtiter plate reader. The development of fluorescence was monitored for 60 min and the linear rate of the reaction was calculated. The IC50 was determined using Graph Pad Prism by a four parameter curve fit.

Data set [2] is described as follows: Mouse pharmacokinetic studies. Format: in vivo. The following applies: male C57BL/6 mice, IV 1 mg/kg, from AUC in plasma and brain; for Kp: mouse, read-out: Mouse plasma/brain ratio. How it is done: Male C57BL/6 mice were fasted overnight. Compounds of the invention as well as two previously known HDAC6 inhibitors, Compounds A and B, were dissolved in dimethyl acetamide at 10 times the final concentration, then Solutol HS 15 (BASF) was added to a final concentration of 10%. Finally 80% saline was added and vortexed to achieve a clear solution. Fifteen animals were injected via the tail vein with 1 mg/kg compound. Blood was collected by retro-orbital bleed at 5 minutes, 15 minutes, 30 minutes, 1 hour, 2 hours, 4 hours, 8 hours and 24 hours after dosing. At 5 minutes, 30 minutes, 1 hour and 4 hours after dosing three animals per time point were sacrificed and brains were removed. The blood was centrifuged at 2000 g for 5 minutes at 4° C. to obtain plasma. Brain samples were homogenized in PBS. The plasma and brain homogenate were extracted with acetonitrile and the level of compound was analyzed by LC/MS/MS. The level of compound in plasma was calculated from a standard curve in rat plasma and the level in brain was calculated from a standard curve in brain homogenate. The area under the curve in plasma and brain were calculated using WinNonLin software. The brain to plasma ratio was determined using the area under the curve values for the two compartments.

Data set [3] has as its target HDAC2 (Homo sapiens (Human), UniProt Q92769). Description: HDAC enzyme assay (HDAC2). In kind it is biochemical. The method, then:
as §1, §2

The target in data set [4] is HDAC1 (Homo sapiens (Human), UniProt Q13547). As to the kind of experiment: HDAC enzyme assay (HDAC1). Format: biochemical. How it is done:
as §1, §2

Data set [5] addresses HDAC3 (Homo sapiens (Human), UniProt O15379). Description: HDAC enzyme assay (HDAC3). In kind it is biochemical. The method, then: as §1, §2
Data set [6] in a line: Rat pharmacokinetic studies. In kind it is in vivo. As to conditions: plasma, male SD rats; for clearance: IV 1 mg/kg; for bioavailability: PO 5 mg/kg vs IV 1 mg/kg, dose adjusted AUC. How it is done:
Male SD rats were fasted overnight. Compounds of the invention as well as two previously known HDAC6 inhibitors, Compounds A and B were dissolved in dimethyl acetamide at 10 times the final concentration, then Solutol HS 15 (BASF) was added to a final concentration of 10%. Finally 80% saline was added and vortexed to achieve a clear solution. For the IV dosing three animals were injected via the foot dorsal vein with 1 mg/kg compound. For the PO dosing 5 mg/kg of compound was delivered by oral gavage. Blood was collected via the tail vein into K2EDTA tubes at 5 minutes, 15 minutes, 30 minutes, 1 hour, 2 hours, 4 hours, 8 hours and 24 hours after dosing. The blood was centrifuged at 2000 g for 5 minutes at 4° C. to obtain plasma. The plasma was extracted with acetonitrile and the level of compound was analyzed by LC/MS/MS. The level of compound in plasma was calculated from a standard curve in rat plasma. The IV clearance and area under the curve were calculated using WinNonLin software. The dose adjusted area under the curve for the IV and oral dosing were used to calculate the oral bioavailability. Compounds A and B, previously known HDAC6 inhibitors, are shown below (See, e.g., U.S. Pat. No. 8,614,223): […]

Data set [7] has as its system taxol treated rats. As to the kind of experiment: Taxol induced neuropathic pain study in rats (Von Frey testing). In kind it is in vivo, rat. The method, then: This study included a histology endpoint in addition to the von Frey testing for paw sensitivity.
Neuropathic pain is induced by a 0.5 ml/kg injection of Taxol (2 mg/kg) administered IP on days 0-12. The development of neuropathic pain is confirmed by measuring mechanical allodynia (Von Frey test) on study day 13.
Allodynic response to tactile stimulation is assessed using the Von Frey apparatus (Touch Test®).
The rat will be placed in an enclosure and positioned on a metal mesh surface, but allowed to move freely. The rats' cabins are covered with red cellophane to diminish environmental disturbances. The test begins after a cessation of exploratory behavior. The set of Von Frey monofilaments provide an approximate logarithmic scale of actual force and a linear scale of perceived intensity.
The operating principle: when the tip of a fiber of given length and diameter is pressed against the skin at right angles, the force of application increases as long as the researcher continues to advance the probe until the fiber bends. After the fiber bends, the probe continues to advance, causing the fiber to bend more, but without additional force being applied. […] The Touch Test™ Sensory Evaluator can be used on the plantar surfaces of the rat's foot. The animal indicates sensation by pulling back its paw. The minimal force needed to elevate the withdrawal reflex is considered/designated as the value of reference. In order to achieve paw withdrawal, the pressure applied is sometimes greater than 60 g, often requiring the researcher to apply enough pressure with the Von Frey filament to actually lift the paw of the naive animal. Decreases in force needed to induce withdrawal are indicative of allodynia, as the force applied is a non-painful stimulus under normal conditions.

Chain of HDAC1 (Q13547 whole entry): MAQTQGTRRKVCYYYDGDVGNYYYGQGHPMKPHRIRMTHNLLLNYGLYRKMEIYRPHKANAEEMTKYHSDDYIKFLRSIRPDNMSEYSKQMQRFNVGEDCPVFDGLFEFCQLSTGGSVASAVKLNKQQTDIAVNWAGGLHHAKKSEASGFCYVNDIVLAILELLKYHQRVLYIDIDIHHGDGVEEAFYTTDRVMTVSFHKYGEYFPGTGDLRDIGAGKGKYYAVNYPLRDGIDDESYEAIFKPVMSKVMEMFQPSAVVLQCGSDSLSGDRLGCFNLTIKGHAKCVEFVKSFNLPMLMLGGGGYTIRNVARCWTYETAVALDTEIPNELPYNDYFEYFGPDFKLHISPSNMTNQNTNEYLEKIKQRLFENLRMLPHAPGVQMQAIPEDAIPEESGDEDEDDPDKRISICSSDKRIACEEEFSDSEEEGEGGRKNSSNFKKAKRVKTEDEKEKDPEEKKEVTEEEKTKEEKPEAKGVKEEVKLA
Chain of HDAC3 (O15379 whole entry): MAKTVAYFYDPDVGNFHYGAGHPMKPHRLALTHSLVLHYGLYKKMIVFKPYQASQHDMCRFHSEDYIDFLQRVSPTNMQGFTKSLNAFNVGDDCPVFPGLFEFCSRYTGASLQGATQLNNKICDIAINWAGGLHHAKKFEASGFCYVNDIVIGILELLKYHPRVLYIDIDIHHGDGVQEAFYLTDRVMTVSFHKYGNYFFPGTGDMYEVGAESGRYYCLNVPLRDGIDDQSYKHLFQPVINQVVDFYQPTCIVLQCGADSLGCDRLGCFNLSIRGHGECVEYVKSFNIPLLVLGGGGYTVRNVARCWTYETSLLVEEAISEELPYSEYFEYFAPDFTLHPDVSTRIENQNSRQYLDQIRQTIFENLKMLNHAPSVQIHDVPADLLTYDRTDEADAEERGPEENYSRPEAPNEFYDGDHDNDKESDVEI
Chain of HDAC3 (Q9Y618 395-489 partner): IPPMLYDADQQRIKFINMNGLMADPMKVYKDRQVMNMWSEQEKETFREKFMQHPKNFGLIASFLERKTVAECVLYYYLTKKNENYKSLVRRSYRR
Chain of HDAC2 (Q92769 whole entry): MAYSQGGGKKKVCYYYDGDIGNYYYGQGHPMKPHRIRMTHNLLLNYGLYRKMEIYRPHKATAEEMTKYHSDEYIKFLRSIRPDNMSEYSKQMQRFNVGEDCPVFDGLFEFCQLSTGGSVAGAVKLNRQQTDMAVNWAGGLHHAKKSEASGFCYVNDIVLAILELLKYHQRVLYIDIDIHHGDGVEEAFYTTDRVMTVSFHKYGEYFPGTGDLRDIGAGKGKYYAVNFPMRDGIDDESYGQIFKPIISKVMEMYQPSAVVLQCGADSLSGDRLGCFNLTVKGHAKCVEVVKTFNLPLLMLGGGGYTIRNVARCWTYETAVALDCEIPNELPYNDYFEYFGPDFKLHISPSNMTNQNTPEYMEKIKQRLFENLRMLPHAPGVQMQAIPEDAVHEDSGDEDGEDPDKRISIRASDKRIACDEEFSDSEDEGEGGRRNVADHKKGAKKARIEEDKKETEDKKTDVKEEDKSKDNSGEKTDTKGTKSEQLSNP
Chain of HDAC6 (Q9UBN7 whole entry): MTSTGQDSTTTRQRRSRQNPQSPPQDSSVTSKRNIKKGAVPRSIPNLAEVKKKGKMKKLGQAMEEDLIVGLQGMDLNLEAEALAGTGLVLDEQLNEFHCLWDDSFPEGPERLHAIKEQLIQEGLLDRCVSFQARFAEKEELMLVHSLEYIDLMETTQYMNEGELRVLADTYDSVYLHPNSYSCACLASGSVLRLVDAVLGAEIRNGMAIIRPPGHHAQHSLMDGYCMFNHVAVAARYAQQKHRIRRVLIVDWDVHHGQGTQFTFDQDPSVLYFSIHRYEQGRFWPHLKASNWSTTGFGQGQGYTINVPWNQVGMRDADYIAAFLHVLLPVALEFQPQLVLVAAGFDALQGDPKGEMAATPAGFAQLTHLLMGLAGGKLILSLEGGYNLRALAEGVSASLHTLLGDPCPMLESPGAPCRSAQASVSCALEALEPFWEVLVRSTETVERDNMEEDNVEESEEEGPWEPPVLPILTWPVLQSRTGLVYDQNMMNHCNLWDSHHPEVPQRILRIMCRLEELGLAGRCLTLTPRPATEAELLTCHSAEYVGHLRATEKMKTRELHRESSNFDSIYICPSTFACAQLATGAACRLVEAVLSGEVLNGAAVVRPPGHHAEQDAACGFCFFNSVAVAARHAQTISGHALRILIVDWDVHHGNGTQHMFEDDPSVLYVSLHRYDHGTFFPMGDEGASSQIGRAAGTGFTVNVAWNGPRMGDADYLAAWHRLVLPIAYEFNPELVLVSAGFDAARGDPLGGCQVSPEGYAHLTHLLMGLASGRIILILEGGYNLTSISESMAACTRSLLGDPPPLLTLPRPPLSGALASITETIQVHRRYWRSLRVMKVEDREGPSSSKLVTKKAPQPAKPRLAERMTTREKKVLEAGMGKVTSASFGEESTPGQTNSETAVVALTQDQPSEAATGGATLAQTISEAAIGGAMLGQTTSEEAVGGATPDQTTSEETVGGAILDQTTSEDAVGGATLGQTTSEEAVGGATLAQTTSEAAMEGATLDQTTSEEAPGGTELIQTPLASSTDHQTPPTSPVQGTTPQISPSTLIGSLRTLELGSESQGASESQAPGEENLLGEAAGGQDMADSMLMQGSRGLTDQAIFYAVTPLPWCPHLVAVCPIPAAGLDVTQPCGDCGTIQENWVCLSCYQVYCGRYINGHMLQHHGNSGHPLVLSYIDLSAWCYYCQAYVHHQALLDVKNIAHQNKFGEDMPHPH

In general, IC50 refers to the concentration at which inhibition is half-maximal. Usually clearance stands for a measure of how efficiently the substance is removed, as volume per time. Low readings indicate a low capacity for elimination, high ones a high capacity for elimination. By bioavailability is commonly meant the share of a dose that reaches the circulation, judged against a reference dose that is usually intravenous. Low readings indicate little systemic uptake, high ones much systemic uptake. As to `O=C(NO)c1cnc(NC2(c3cc(F)cc(F)c3)CCCCC2)nc1` [Compound 001], the IC50 in data set [1] came out at 2.9 nM; in data set [3] it was 870 nM; in data set [4], 1040 nM; in data set [5], 6200 nM. Further, in data set [2], the Kp is 2.55. This molecule also had a clearance in data set [6] of 91.7 mL/min/kg. The molecule also had a bioavailability in data set [6] of 11.1%.
Turning to `O=C(NO)c1cnc(NC2(c3cc(F)ccc3F)CCOCC2)nc1` [Compound 002], the half-inhibitory concentration (IC50) in data set [1] worked out at 2.4 nM; in data set [3], 108 nM; in data set [4], 117 nM; in data set [5] it was 671 nM. Besides, the Kp in data set [2] was found to be 0.45. The same molecule gave a clearance in data set [6] of 93.3 mL/min/kg. Besides, the bioavailability in data set [6] was 18.4%.
Take `O=C(NO)c1cnc(NC2(c3ccccc3)CCC(F)(F)CC2)nc1` [Compound 003]: the IC50 amounted to 3.7 nM in data set [1], 982 nM in data set [3], 961 nM in data set [4] and 4380 nM in data set [5]. In addition, the Kp in data set [2] was determined as 0.67. Besides, in data set [7] (1 mg/kg PO b.i.d., study day 15), the “withdrawal force (Von Frey)” value was found to be 58.30 ± 1.70 g. Moreover, in data set [7] (study day 13 pre-dosing, last dose on day 12 (b.i.d.)), the “mean group withdrawal force (Von Frey)” value was 41.10 ± 5.88 g. For the same molecule, the “reversal of nociception / tactile allodynia” value in data set [7] (taxol treated rats, 1, 3, 10 mg/kg PO b.i.d.) was “completely reversed nociception; also recorded: reduced tactile allodynia”. This molecule had a clearance in data set [6] of 61.7 mL/min/kg. Also, the bioavailability in data set [6] was 41.5%.
`O=C(NO)c1cnc(NC2(c3cccc(F)c3)CCC3(CC2)OCCO3)nc1` [Compound 004]: the IC50 in data set [1] was determined as 3.9 nM; in data set [3], 833 nM; in data set [4], 703 nM; in data set [5] it was 1820 nM.
Consider `O=C(NO)c1cnc(NC2(c3ccccc3)CC2)nc1` [Compound A, reference compound], for which, in data set [2], the Mouse plasma/brain ratio came to 1.23. In data set [6], this molecule had a clearance of 100 mL/min/kg and a bioavailability of 16.5%.
Regarding `O=C(NO)c1cnc(NC2(c3cccc(F)c3)CCCCC2)nc1` [Compound B, reference compound], the Mouse plasma/brain ratio in data set [2] turned out to be 1.28. Also, in data set [6], the clearance is 38.3 mL/min/kg and the bioavailability is 7.9%.
Take `NCC1(CC(=O)O)CCCCC1` [gabapentin, reference compound]: the “withdrawal force (Von Frey)” value turned out to be 58.30 ± 1.70 g in data set [7] (150 mg/kg IP, 2 hours post dosing, study day 13); 60.00 ± 0.00 g in data set [7] (150 mg/kg IP, 2 hours post dosing, study day 14); 58.30 ± 1.70 g in data set [7] (150 mg/kg IP, 2 hours post dosing, study day 15).
